US5872104A, “Combinations and methods for reducing antimicrobial resistance” (Oridigm Corporation, priority 1994, dated 1999)
Read-outs that look alike come from different tables or passages of the source.

Columns and labels:
GSH = settings: cited from earlier work; for reduction of GSH levels: 0.2 mmol/kg (S) and 0.4 mmol/kg (S,R), liver, kidney and pancreas; for depletion of GSH: 0.2 mg/kg
tRNA methylases = settings: cited from earlier work
adenosine deaminase = settings: cited from earlier work
[1] = tested on: RNA synthesis in Hela cells; settings: cited from earlier work
[2] = tested on: S. aureus 27660 (erythromycin resistant); type: cell-based; settings: in combination with erythromycin
SAH hydrolase = settings: cited from earlier work; for Ki: De Clercq & Cools (1985)
[3] = tested on: tumor-derived methionine adenosyltransferases; settings: cited from earlier work
SAM synthetase = settings: cited from earlier work
L1210 cells = settings: absence of polyamine depletion; cited from earlier work
methyl transfer from SAM = settings: cited from earlier work
SAHH hydrolase = settings: cited from earlier work
[4] = tested on: vesicular stomatitis virus; settings: primary rabbit kidney cells; cited from earlier work
human retrovirus = settings: cited from earlier work
[5] = tested on: RNA methyltransferase from Streptomyces antibioticus; settings: 100 μM; cited from earlier work
[6] = tested on: vaccinia virion mRNA(guanine-7)methyltransferase; settings: 100 μM; cited from earlier work
[7] = mice, cited from earlier work

Compound: CCCC[S@](=N)(=O)CC[C@H](N)C(=O)O [L-buthionine-(S)-sulfoximine]
- reduction of GSH levels (GSH): effective in reducing GSH levels

Compound: CN(C)c1ncnc2[nH]cnc12 [6-dimethyladenine]
- inhibition of tRNA methylases (tRNA methylases): possible exceptions

Compound: OCC1NC=Nc2c1ncn2[C@@H]1O[C@H](CO)[C@@H](O)[C@H]1O (stereo partly shown) [1,6-dihydro-6-hydroxy-methylpurine nucleoside]
- ADA inhibition (adenosine deaminase): inhibitors of ADA

Compound: Nc1ncnc2c1ncn2[C@@H]1O[C@H](CO)C[C@H]1O [Cordycepin, 3'-deoxyadenosine]
- RNA synthesis ([1]; 200 μg/ml): totally inhibits RNA synthesis
- DNA and protein synthesis [1]: not affected
- synthesis of mature rRNA, ribosomal precursor 45S RNA and tRNA [1]: inhibits the synthesis of mature rRNA, ribosomal precursor 45S RNA and tRNA
- rRNA and tRNA syntheses ([1]; lower concentrations): selectively inhibited

Compound: Nc1ncnc2c1ncn2[C@H]1C[C@H](O)[C@@H](CO)O1 [2'-deoxyadenosine]
- enhanced killing with erythromycin [2]: enhanced the killing
- SAH hydrolase inhibition (SAH hydrolase): suicide inactivators of SAH hydrolase

Compound: 6-mercaptoadenine
- inhibition of tRNA methylases (tRNA methylases): gave inhibition that would be acceptable

Compound: CC[Se]CCC(N)C(=O)O (racemic) [seleno-DL-ethionine]
- inhibition [3]: effective inhibitors

Compound: 6-methoxyadenine
- inhibition of tRNA methylases (tRNA methylases): possible exceptions

Compound: NC1(C(=O)O)CC2CCC2C1 (stereo not shown) [3-aminobicyclo[3.2.0]heptane-3-carboxylic acid]
- SAM synthetase inhibition (SAM synthetase): effective inhibitors

Compound: CCCC[S@@](=N)(=O)CC[C@H](N)C(=O)O [L-buthionine-(R)-sulfoximine]
- depletion of GSH (GSH; kidney): modest depletion in the kidney
- depletion of GSH (GSH; liver or pancreas): did not show any significant depletion of GSH

Compound: C[Se]CC[C@H](N)C(=O)O [selenomethionine]
- IC50 (L1210 cells): 0.13 mM

Compound: C[S+](CC[C@H](N)C(=O)O)C[C@H]1O[C@@H](n2cnc3c(=O)[nH]cnc32)[C@H](O)[C@@H]1O (stereo partly drawn) [S-inosyl-L-methionine]
- inhibition (methyl transfer from SAM): effective inhibitors

Compound: NC1(C(=O)O)CC2CC1C1CCCC21 [(1R,2R,4S) isomer of 2-amino-5,6-exo-trimethylenenorbornane-2-carboxylic acid, 2-amino-5,6-exo-trimethylenenorbornane-2-carboxylic acid]
- SAM synthetase inhibition (SAM synthetase): effective inhibitors

Compound: Nc1ncnc2c1ncn2[C@@H]1C=C[C@@H](O)[C@H]1O [DHCeA, dihydroxycyclopentenyladenine]
- antiviral activity and cytotoxicity vs first generation (SAHH hydrolase): retained antiviral activity and considerably lower cytotoxicity than their parent first generation inhibitors

Compound: Nc1ncnc2c1ncn2CC(O)C(=O)O (racemic) [(RS)-AHPA, (R,S)-3-adenine-9-yl-2-hydroxypropanocic acid]
- Ki (SAH hydrolase): 73 nM

Compound: CC(C)COC(=O)C(O)Cn1cnc2c(N)ncnc21 (racemic) [(RS)-AHPA isobutyl ester]
- minimum inhibitor concentration (50% reduction of cytopathogenicity) [4]: 2 µg/mL
- effective inhibitory concentration (human retrovirus): ~1.2 µg/mL
- activity index (human retrovirus; in vitro cytotoxicity vs activity): 80

Compound: Nc1ncnc2c1ncn2C1OC(CC2CCC(N)C(=O)N2)C(O)C1O (stereo not shown) [cyclosinefungin]
- inhibition [5]: 50%

Compound: Nc1ncnc2c1ncn2[C@@H]1O[C@H](CS(=O)(=O)CC[C@H](N)C(=O)O)[C@@H](O)[C@H]1O [S-adenosyl-L-homocysteine sulfone]
- inhibition [6]: 40%

Compound: Nc1nc(F)nc2c1ncn2[C@@H]1O[C@H](CSCCC(N)C(=O)O)[C@@H](O)[C@H]1O (stereo partly shown) [2-FSAH, 2-fluoro-S-adenosylhomocysteine]
- SAH hydrolase inhibition (SAH hydrolase): effective inhibitor of SAHH

Compound: C[S+](CCCN)C[C@H]1O[C@@H](n2cnc3c(N)ncnc32)[C@H](O)[C@@H]1O (stereo partly shown) [S-adenosyl-(5')-3-methylthio-propylamine]
- inhibition (methyl transfer from SAM): effective inhibitors

Compound: Nc1ncnc2c1ncn2C[C@H](O)CO [(S)-DHPA, 9(S)-(2,3-dihydroxypropyl)adenine]
- Ki (SAH hydrolase): 1400 nM
- minimum inhibitor concentration (50% reduction of cytopathogenicity) [4]: 20 µg/mL
- effective inhibitory concentration (human retrovirus): about 60 μg/ml

Compound: NC(C(=O)O)C1CCCC1 (stereo not shown) [cyclopentaneglycine]
- SAM synthetase inhibition (SAM synthetase): effective inhibitors

Compound: Nc1c2nc[nH]c2nc[n+]1[O-] [adenine-N^1 -oxide]
- inhibition of tRNA methylases (tRNA methylases): gave inhibition that would be acceptable

Compound: NC1(C(=O)O)CCCCC1 [1-aminocyclohexanecarboxylic acid]
- inhibition [3]: effective inhibitors

Compound: Nc1ncnc2c1ncn2[C@@H]1O[C@H](CO)[C@@H](O)[C@@H]1O [Ara-A, 9-β-arabinofuranosyladenine]
- enhanced killing with erythromycin [2]: enhanced the killing
- SAH hydrolase inhibition (SAH hydrolase): suicide inactivators of SAH hydrolase
- activity relative to 2'-deoxyadenosine (SAH hydrolase; suicide inactivation of SAH hydrolase): twice as active as 2'-deoxyadenosine
- LD50 ([7]; i.p.): 4,677 mg/kg
- LD50 ([7]; orally): 7,950 mg/kg

Compound: Nc1nc(N)c2ncn([C@@H]3C[C@H](O)[C@@H](O)[C@H]3O)c2n1 (relative stereo) [2,6-diamino-analogue]
- SAH hydrolase inhibition (SAH hydrolase): inhibitors of SAHH

Compound: CS/C=C\[C@H](N)C(=O)O (stereo in doubt) [L-cis-AMTB, L-2-amino-4-methylthio-cis-but-3-enoic acid]
- inhibitory potency relative to L-cis-AMB (SAM synthetase): slightly less inhibitory than L-cis-AMB

Compound: CNc1ncnc2[nH]cnc12 [6-methyladenine]
- inhibition of tRNA methylases (tRNA methylases): gave inhibition that would be acceptable

Compound: CCSCC[C@H](N)C(=O)O [L-ethionine]
- inhibition [3]: effective inhibitors

Compound: Nc1ncnc2nc[nH]c12.O=S(=O)(O)O [adenine sulfate]
- inhibition of tRNA methylases (tRNA methylases): gave inhibition that would be acceptable

Compound: CC1(C)N=C(N)N=C(N)N1c1ccc(CCCCc2ccc(S(=O)(=O)F)cc2Cl)c(Cl)c1 [NSC 127755]
- s.c. toxicity (LD100) ([7]; s.c.): ≥ 156 mg/kg

Compound: N[C@]1(C(=O)O)C[C@H]2CC[C@@H]1C2 [(1R,2R,4S) isomer of 2-aminonorbornane-2-carboxylic acid, 2-aminonorbornane-2-carboxylic acid]
- SAM synthetase inhibition (SAM synthetase): effective inhibitors

Compound: Nc1nccc2c1ncn2[C@@H]1CC[C@@H](O)[C@H]1O [c^3 -DHCaA, dihydroxycyclopentanyl-3-deazaadenine]
- antiviral activity and cytotoxicity vs first generation (SAHH hydrolase): retained antiviral activity and considerably lower cytotoxicity than their parent first generation inhibitors

Compound: Nc1nccc2c1ncn2[C@@H]1C=C[C@@H](O)[C@H]1O [c^3 -DHCeA, dihydroxycyclopentenyl-3-deazaadenine]
- antiviral activity and cytotoxicity vs first generation (SAHH hydrolase): retained antiviral activity and considerably lower cytotoxicity than their parent first generation inhibitors

Compound: C/C(Cl)=C/C[C@H](N)C(=O)O [(Z)-L-2-amino-5-chloro-trans-4-hexanoic acid]
- inhibition [3]: effective inhibitors

Compound: Nc1ncnc2nc[nH]c12.O=P(O)(O)O [adenine phosphate]
- inhibition of tRNA methylases (tRNA methylases): gave inhibition that would be acceptable

Compound: Nc1ncnc2c1ncn2[C@@H]1CC[C@@H](O)[C@H]1O [DHCaA, dihydroxycyclopentanyladenine]
- antiviral activity and cytotoxicity vs first generation (SAHH hydrolase): retained antiviral activity and considerably lower cytotoxicity than their parent first generation inhibitors

Compound: NC1(C(=O)O)CC2CC1C2 (single isomer, unassigned; (+)) [(+)-2-aminobicyclo[2.1.1]hexane-2-carboxylic acid]
- SAM synthetase inhibition (SAM synthetase): most effective
- inhibition [3]: most effective
- IC50 (L1210 cells): 5 mM

Compound: CSCSC[C@H]1O[C@@H](n2cnc3c(N)ncnc32)[C@H](O)[C@@H]1O [5'-S-methylthiomethyladenosine]
- inhibition [5]: 65%

Compound: Nc1ncnc2c1ncn2[C@@H]1C[C@H](CSCC[C@H](N)C(=O)O)[C@@H](O)[C@H]1O [S-aristeromycinyl-L-homocysteine]
- inhibition [6]: 66%

Compound: Nc1nccc2c1ncn2[C@@H]1C[C@H](CO)[C@@H](O)[C@H]1O [carbocyclic 3-deazaadenosine, carbocyclic-3-deazaadenosine]
- Ki (SAH hydrolase): 13 nM
- minimum inhibitor concentration (50% reduction of cytopathogenicity) [4]: 0.2 µg/mL
- effective inhibitory concentration (human retrovirus): ~1.4 µg/mL

Compound: CCCCS(=N)(=O)CC[C@H](N)C(=O)O (stereo partly drawn) [L-buthionine-(S,R)-sulfoximine]
- reduction of GSH levels (GSH): effective in reducing GSH levels

Compound: CC=CC[C@H](N)C(=O)O [L-2-amino-4-hexanoic acid]
- inhibition [3]: effective inhibitors

Compound: OC[C@H]1O[C@@H](n2cnc3c2N=CNC[C@H]3O)[C@H](O)[C@@H]1O [Coformycin]
- ADA inhibition (adenosine deaminase): potent inhibitors of ADA

Compound: Nc1nccc2c1ncn2[C@@H]1O[C@H](CSCC[C@H](N)C(=O)O)[C@@H](O)[C@H]1O [S-(3-deazaadenosyl)-L-homocysteine]
- inhibition [6]: 84%

Compound: Nc1ncnc2c1ncn2[C@@H]1O[C@H](C[S+]([O-])CC[C@H](N)C(=O)O)[C@@H](O)[C@H]1O (stereo partly drawn) [S-adenosyl-L-homocysteine sulfoxide]
- inhibition [6]: 47%

Compound: NC1(C(=O)O)CCC1 [1-aminocyclobutanecarboxylic acid]
- inhibition [3]: effective inhibitors
